Laboratory results published in PMC5187537, “Antioxidant Activity of Oat Proteins Derived Peptides in Stressed Hepatic HepG2 Cells” (Antioxidants, 2016).
Several values for one entry are separate records, joined by “and”; a condition that tells them apart may be missing. Equal values may be shown once. Read-outs that look alike come from different tables or passages of the source.

Tests used:
[1] = system: RAW 264.7 cells; conditions: peptides from fish; cited from earlier work
Description: The physiological role of GSH has long been of interest, particularly its antioxidant function due to the unique redox chemistry of its cysteinyl thiol residue. The oxidation of sulfhydryl groups on amino acids by ROS can lead to the formation of protein disulfide bonds, which can be reduced by GSH into individual sulfhydryl groups. GSH is also a substrate used by GPx in the reduction of peroxides and its concentration often reflects oxidative status of cells.

[2] = Oxygen radical absorbance capacity (ORAC) assay; conditions: fluorescein 0.08 µM, AAPH 150 mM, 37 °C, 50 min, potassium phosphate buffer pH 7.4 75 mM, peptides 100 and 200 µM; triplicate, mean ± STDEV
Procedure: The ORAC assay was performed as previously described. The decay of fluorescein (0.08 µM) by AAPH (150 mM) at 37 °C was recorded at 1 min intervals over 50 min using a BioTek™ FL × 800™ fluorescent microplate reader (Fisher Scientific, Nepean, ON, Canada) with fluorescence filters (excitation 485/20 nm, emission 528/20 nm). Potassium phosphate buffer (pH 7.4, 75 mM) was used to dissolve peptides (100 and 200 µM) and Trolox standards (6.25–100 µM). Data analysis was done with Gen5^TM software (Fisher Scientific, Nepean, ON, Canada), and ORAC values were expressed as µM Trolox Equivalent (TE)/µM peptide using the standard curve.

[3] = system: HepG2 cells; format: cell-based, Human; conditions: then 20 mM AAPH 24 h, MTT; for Increase of viability of cells compared to PC: 100 µM peptide 24 h, p < 0.05; for Cytoprotective effect against AAPH-induced damage: 50 or 100 µM peptide 24 h
Procedure: Human hepatocellular carcinoma (HepG2) cells were purchased from the American Type Culture Collection (ATCC; Manassas, VA, USA). They were cultured at 37 °C in a humidified incubator with 5% CO2 and 95% air. Dulbecco’s Minimal Essential Media (DMEM) supplemented with 10% (v/v) Fetal Bovine Serum was used for the maintenance of cells. […] The MTT (3-(4,5-dimethylthiazol-2-yl)-2,5-diphenyltetrazolium bromide) assay, as described in an earlier research, was used for cytotoxicity and cytoprotective tests. […] Following another 24 h incubation, cells were washed twice with 200 µL of PBS. Ten µL of MTT solution (5 mg/mL in PBS) and 100 µL of media were added to each well. After 1 h, MTT solution was removed, and 50 µL DMSO were added. Absorbances were recorded at 570 nm with 630 nm background subtraction using a BioTek Epoch™ microplate reader (Fisher Scientific, Nepean, ON, Canada). Untreated cells were used as negative control (NC) and cells treated with only AAPH were used as positive control (PC).

[4] = system: glutathione peroxidase (GPx); assay: Glutathione peroxidase activity of lysates of AAPH-stressed cells; format: cell-based, Human; conditions: for Effect on GPx activity of AAPH-stressed cells: then AAPH 24 h
Procedure: (§1) Cells were seeded at 1 × 10^6 cells/plate in 60 mm tissue culture plates and allowed to grow for 24 h. In each plate, cells were washed twice with 4 mL of PBS (pH 7.2), and treated with 4 mL peptide samples (P1, P2, P6, P7) dissolved in culture media at 50 or 100 µM for 24 h. After removal of peptide solutions, cells were washed twice with 4 mL of PBS/plate and treated with 4 mL of […] dissolved in culture media and allowed to incubate for 24 h. Cells in each culture plate were harvested by incubation (5 min) with 0.5 mL of 0.25% trypsin, addition of 1 mL of culture media and centrifugation at 1000× g for 5 min. Cell pellets were washed with ice cold PBS (500 µL each) until no pink color was observed, re-suspended in ice cold PBS (300 µL) for the superoxide dismutase (SOD) assay, 500 µL for glutathione peroxidase (GPx) and catalase (CAT) assays. For total glutathione assay, 300 µL of 5% ice cold sulfosalicylic acid bubbled with 100% nitrogen was used for cell lysis. Cells were lysed by sonication on ice for 1 min using a probe-type sonicator (Vibra-Cell, Sonics and Materials Inc., Newtown, CT, USA) pulsing at 15 s on and 10 s off cycles. Following centrifugation of cell lysate at 13,000× g (4 °C), pellets containing cell debris were discarded, while supernatants were used for determination of glutathione content. Protein contents were determined using a modified Lowry assay.
The activity of GPx was determined as previously described in a 96-well plate. Briefly, in each well, 187.5 µL of potassium phosphate buffer was mixed with 12.5 µL NADPH (4 mM) solution and 25 µL of cell lysates or buffer (blank), and incubated at 30 °C for 5 min. Then, 100 µL of 0.15% cumene hydroperoxide was added in each well to begin the reaction. The rate of disappearance of NADPH was followed at 340 nm for 5 min. The activity was expressed as Units of GPx activity/mg protein.

[5] = system: superoxide dismutase (SOD); assay: Superoxide dismutase activity of lysates of AAPH-stressed cells; format: cell-based, Human; conditions: 50 µM peptide 24 h, then AAPH 24 h
Procedure: as §1
The SOD activity was measured based on the rate of reduction of nitroblue tetrazolium (2.24 mM) to formazan by xanthine oxidase (13.2 U/mL) at 560 nm. Eight concentrations of each cell extract ([…] protein/mL) or SOD standard (2–500 ng/mL) were used to obtain inhibition curves. Specifically, 20 µL of cell sample, or buffer (blank) was mixed with 160 µL of assay solution, and 20 µL of xanthine oxidase was added to initiate the reaction. The reduction of nitroblue tetrazolium to blue formazan by O2^−• generated in situ was followed at 560 nm. SOD activities were calculated and expressed as units per milligram of protein.

[6] = system: catalase (CAT); assay: Catalase activity of lysates of AAPH-stressed cells; format: cell-based, Human
Procedure: as §1, with “assay. To measure the catalase activity, 1790 µL potassium phosphate buffer (50 mM, pH 7.0) was mixed with 200 µL cell lysate in a UV cuvette. Ten µL of H2O2 (30%) was added, and removal of H2O2 by catalase was followed at 240 nm using a Cary 50 Bio UV-Vis spectrophotometer with 18-cell changer (Varian Inc., Mississauga, ON, Canada). The activity was expressed as a percentage of control.” for “assay.”

[7] = cited from earlier work
Procedure: Recent studies have, however, shown that, in addition to fibers and polyphenols, hydrolyzed proteins and peptides also contribute to the health promoting effect of cereals. […] Protein hydrolysates from oats, wheat, and rice have all shown antioxidant activities against common reactive oxygen species (ROS) in various systems. The peroxyl radical scavenging activity of oat proteins in the ... || Peroxyl radical (ROO^•) scavenging activities of P1–P7 were evaluated using the ORAC assay. […] ROO^• scavenging activities can be affected by sequences, molecular weights and the presence of amino acids that can form stable radical intermediates after donation of electrons or protons. The highest activities of P2 and P5 can be explained ...

[8] = system: glutathione (GSH) of HepG2 cells; assay: Cellular glutathione, enzymatic recycling method; format: cell-based, Human; conditions: treatment with AAPH alone, 24 h
Procedure: as §1
The assay was based on the enzymatic recycling method adjusted for 96-well plates. All solutions were prepared in sodium phosphate buffer (125 mM, pH 7.5) that contained 6.3 mM EDTA (ethylenediaminetetraacetic acid). In summary, 60 µL of 0.35 mM NADPH and 10 µL of 6 mM DTNB were added to wells, this was followed by the addition of 20 µL cell lysate or glutathione (GSH) standard. To initiate the reaction, 10 µL of glutathione reductase (5 IU/mL) was added and the rate of reaction between GSH from cell lysate and DTNB was measured at 412 nm. Total glutathione of cell lysates was calculated based on a standard curve of glutathione.

[9] = 50 µM peptide 24 h, then AAPH 24 h
[10] = peptide from beta-lactoglobulin

Question: Which “Increase of ROS due to AAPH” value [1] does the source give for CAAP [literature peptide from fish] here?
Answer: attenuated

Question: With “FNDRLRQGQLL [P1, oat protein derived peptide …, synthesized by GenScript]” as the molecule, how does the “ORAC value (peroxyl radical scavenging activity)” value [2] read?
Answer: 0.14–0.61 µM TE/µM

Question: And the “Increase of viability of cells compared to PC” value [3]?
Answer: 15.5%

Question: What about the “Cytoprotective effect against AAPH-induced damage” value (shortened to “Cytoprotective effect”) [3] of the same molecule?
Answer: cytoprotective

Question: And the “Effect on GPx activity of AAPH-stressed cells” value ([4]; 50 µM peptide 24 h)?
Answer: completely restored the activity

Question: And the “Effect on SOD activity compared to AAPH treated cells only (PC)” value [5]?
Answer: did not affect the activity

Question: What about the “Effect on CAT activity compared to PC cells” value [6, 9] of the same molecule?
Answer: no change was observed

Question: And the “Effect on CAT activity” value ([6]; 100 µM peptide 24 h, then AAPH 24 h)?
Answer: not affected by the peptide concentration

Question: With “YAEERYPIL [literature peptide from egg white]” as the molecule, how does the ORAC activity ([7]; peptide from egg white) read?
Answer: 3.5 µM TE/µM

Question: Which “Cytoprotective effect” value [3] does the source give for “GQTV [P3, oat protein derived peptide GQTV, synthesized by GenScript]” here?
Answer: no effect on oxidative damages

Question: Which “ORAC value (peroxyl radical scavenging activity)” value [2] does the source give for “GQTVFNDRLRQGQLL [P4, oat protein derived peptide …, synthesized by GenScript]” here?
Answer: 0.14–0.61 µM TE/µM

Question: And the “Cytoprotective effect” value [3]?
Answer: no effect on oxidative damages

Question: Which “Increase of ROS due to AAPH” value [1] does the source give for VCSV [literature peptide from fish] here?
Answer: attenuated

Question: Which ORAC activity [7, 10] does the source give for “MHIRL [literature peptide from beta-lactoglobulin]” here?
Answer: 0.306 µM TE/µM

Question: Which results are given for “DVNNNANQLEPR [P7, oat protein derived peptide …, synthesized by GenScript]”?
Answer: ORAC value (peroxyl radical scavenging activity) [2]: 0.14–0.61 µM TE/µM and 0.14 ± 0.04 µM TE/µM; Increase of viability of cells compared to PC [3]: 8.3%; Cytoprotective effect against AAPH-induced damage [3]: cytoprotective; Effect on GPx activity of AAPH-stressed cells ([4]; 50 µM peptide 24 h): had no effect; Effect on GPx activity of AAPH-stressed cells ([4]; 100 µM peptide 24 h): only suppressed the damage caused by AAPH; Effect on SOD activity compared to AAPH treated cells only (PC) [5]: did not affect the activity; Further increase of CAT activity compared to PC cells [6, 9]: 90%

Question: Which “Decrease of GPx activity relative to NC” value ([4]; HepG2 cells incubated with AAPH alone, 24 h) does the source give for `CC(C)(N=NC(C)(C)C(=N)N)C(=N)N.Cl.Cl` [AAPH, 2,2′-azobis(2-methylpropionamidine) dihydrochloride, reference compound] here?
Answer: 18.2%

Question: And the “Increase of CAT activity” value ([6]; treatment with AAPH alone, 24 h)?
Answer: ~2 fold

Question: And the “Decrease of GSH” value [8]?
Answer: 58.1%

Question: Which ORAC activity [7, 10] does the source give for “WYSLAMAASDI [literature peptide from beta-lactoglobulin]” here?
Answer: 2.6 µM/µM
